Holding throughout (type): binding
One experiment concerns the target T1, wild‐type STAT4 (Homo sapiens, UniProt Q14765).
T1 construct: 6xHis; made in house
T1 sequence (Q14765 1-748): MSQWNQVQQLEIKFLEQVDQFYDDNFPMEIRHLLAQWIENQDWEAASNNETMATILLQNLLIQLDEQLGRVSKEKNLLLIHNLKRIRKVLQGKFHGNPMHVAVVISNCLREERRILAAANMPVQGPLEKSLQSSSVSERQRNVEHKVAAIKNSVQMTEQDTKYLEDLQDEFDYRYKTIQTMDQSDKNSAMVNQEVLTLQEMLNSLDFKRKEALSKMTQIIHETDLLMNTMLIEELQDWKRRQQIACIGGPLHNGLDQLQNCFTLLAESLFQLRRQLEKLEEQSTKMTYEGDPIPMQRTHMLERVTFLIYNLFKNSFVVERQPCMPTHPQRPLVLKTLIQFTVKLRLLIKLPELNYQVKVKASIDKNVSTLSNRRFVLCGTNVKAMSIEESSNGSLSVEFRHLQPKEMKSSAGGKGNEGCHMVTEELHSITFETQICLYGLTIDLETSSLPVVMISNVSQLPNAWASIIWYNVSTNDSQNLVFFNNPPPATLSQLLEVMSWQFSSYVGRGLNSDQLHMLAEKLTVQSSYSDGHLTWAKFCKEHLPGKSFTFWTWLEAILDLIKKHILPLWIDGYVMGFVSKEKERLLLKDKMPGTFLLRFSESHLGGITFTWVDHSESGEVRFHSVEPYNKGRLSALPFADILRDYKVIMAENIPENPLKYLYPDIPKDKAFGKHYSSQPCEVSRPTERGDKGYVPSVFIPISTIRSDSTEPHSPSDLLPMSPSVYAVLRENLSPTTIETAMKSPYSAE
In words: Isothermal titration calorimetry (ITC), wild-type STAT4. As to conditions: for Kd: ITC, 25 °C, one-site binding model, read-out: K d (ITC), wild-type STAT4. Here is the method:
Isothermal Titration Calorimetry
Purification of 6xHis-tagged proteins for ITC experiments was carried out by affinity chromatography on His-Bind resin. The eluting fractions were analyzed by SDS -PAGE.
Proteins were dialyzed against ITC buffer (10 mM Tris pH 8.0, 50 mM NaCl) using dialysi s tubing with a 50 kDa cut-off. ITC experiments were performed using a VP-ITC Micro Calorimeter (MicroCal). 6m was dissolved as a 100 mM stock in DMSO and diluted 1/1000 in ITC buffer (Tris pH 8.0 and 50 mM NaCl), resulting in a final concentration of 100 µM. 8k was dissolved as a 5 mM stock in ITC buffer and diluted 1/25 in ITC buffer with DMSO, resulting in a final concentration of 200 µM 8k. DMSO was added to a final concentration of 2% (v/v). To avoid errors caused by the detection of dilution heat, 0.1 % (v/v) DMSO for 6m or 2% (v/v) DMSO for 8k experiments was added to the buffers containing the proteins and to the reference buffer. Proteins were degassed before the experiments using a ThermoVac sample degassing station. The following conditions were used for ITC experiments: 10 µM STAT4 protein for 6m or 20 µM STAT4 protein for 8k experiments, 100 µM 6m or 200 µM 8k, 28 injections with 10 µL single injection volume, 250 s initial delay, 500 s spacing between injections, 250 µcal/s reference power, 300 rpm stirring at 25 °C for 6m or 220 rpm stirring at 25 °C for 8k. Data analysis was performed using NITPIC[1, 5] and SEDPHAT,[6] applying a low-noise integration approach. Data were fitted using a one-site binding model. Figures were generated using GUSSI.[7] Experiments were carried out in quadruplicate for 6m and triplicate

A further experiment deals with T2, STAT4 (Homo sapiens, UniProt Q14765).
T2 sequence (Q14765 1-748): T1 sequence (Q14765 1-748)
In words: CETSA of STAT4 in lysates from NK-92 cells. On the set-up: utilizing cellular lysates from the STAT4‐expressing natural killer cell line NK‐92; endogenous in cells; host or cells: NK-92 (DSMZ). As to conditions: 100 µM; for ΔT agg of STAT4 / T agg of STAT4 (average): CETSA, NK-92 cell lysates; for ΔT agg of STAT4: versus DMSO control; for T agg of STAT4 (average): DMSO control 48.7 ± 0.5 °C, n = 3; for Tagg (STAT4) 3 independent experiments: individual CETSA experiments, in °C (unit assumed). Here is the method:
NK-92 cells (DSMZ) were cultured in α-MEM containing 12.5% fetal bovine serum (FBS), 12.5% horse serum, 2 mM L-glutamine, penicillin/streptomycin and 50 U/ml IL -2. […]
NK-92 cell lysates were prepared for CETSA experiments by washing cultured cells once with TBS and resuspending in TBS supplemented with Halt Protease In hibitor Cocktail, EDTA-free (Fisher Scientific) at 3 x 10^6 cells per 100 µl. […]
CETSA experiments were performed essentially using the published protocol. Briefly, NK-92 cell lysates were incubated with test compound or DMSO for 15 min at room temperature (final DMSO concentration 2%). During this time, the treated lysate was divided into 10x 50 µl aliquots in 0.2 ml reaction tubes. Samples were then heated to the designated temperatures in a Veriti Pro Thermocycler (Thermo Fishe r Scientific) for 3 min, followed by 3 min incubation at room temperature, and then placed on ice. The samples were transferred to 1.5 ml tubes before centrifugation at 20,000 g for 20 min at 4 °C, to remove aggregated proteins. The soluble fractions were subsequently analyzed by Western blotting.
The components of cell lysates from treated cells, or heat-treated lysates from CETSA, were separated by SDS-PAGE (10%), transferred to nitrocellulose membrane (Bio-Rad) and detected using monoclonal rabbit primary antibodies (Cell Signaling), α-rabbit-HRP secondary antibody (Dako) and Western Lightning Plus chemiluminescence reagent (Perkin Elmer).
Bands were visualized using an ImageQuant system (GE Healthcare) and quantitated using ImageJ software (NIH). […]
The sitting drop was composed of 0.1 µl protein solution and 0.1 µl reservoir solution. Plates were stored at 19°C in a protein […]
In the first set of experiments, w e tried to crystallize STAT4 as a SUMO -STAT4 fusion protein […]
was cleaved off as described above.
Screening for crystallization conditions for tag-free STAT4 was performed both in the absence or presence of 1 equivalent of 6m or 6h. Since the chosen protein concentration of 3.6 mg/ml appeared to be too low, screening was repeated with a higher concentration of 6.4 mg/ml STAT4 for all conditions (corresponding to 100 µM 6m). Both the SUMO-STAT4 and the tag-free STAT4 preferentially precipitated under conditions containing polyethylene glycol. In one set of experiments, we also screened for conditions in the presence of the high-affinity peptide GY(PO3H2)LPQNID adapted from the IL-12 receptor. However, none of the conditions resulted in the growth of STAT4 crystals (Table S4).

In another experiment the target is STAT3 (Homo sapiens, UniProt P40763). In words: CETSA of STAT3 in lysates from NK-92 cells. The arrangement: endogenous in cells; host or cells: NK-92 (DSMZ) lysate.
STAT3, sequence (P40763 whole entry): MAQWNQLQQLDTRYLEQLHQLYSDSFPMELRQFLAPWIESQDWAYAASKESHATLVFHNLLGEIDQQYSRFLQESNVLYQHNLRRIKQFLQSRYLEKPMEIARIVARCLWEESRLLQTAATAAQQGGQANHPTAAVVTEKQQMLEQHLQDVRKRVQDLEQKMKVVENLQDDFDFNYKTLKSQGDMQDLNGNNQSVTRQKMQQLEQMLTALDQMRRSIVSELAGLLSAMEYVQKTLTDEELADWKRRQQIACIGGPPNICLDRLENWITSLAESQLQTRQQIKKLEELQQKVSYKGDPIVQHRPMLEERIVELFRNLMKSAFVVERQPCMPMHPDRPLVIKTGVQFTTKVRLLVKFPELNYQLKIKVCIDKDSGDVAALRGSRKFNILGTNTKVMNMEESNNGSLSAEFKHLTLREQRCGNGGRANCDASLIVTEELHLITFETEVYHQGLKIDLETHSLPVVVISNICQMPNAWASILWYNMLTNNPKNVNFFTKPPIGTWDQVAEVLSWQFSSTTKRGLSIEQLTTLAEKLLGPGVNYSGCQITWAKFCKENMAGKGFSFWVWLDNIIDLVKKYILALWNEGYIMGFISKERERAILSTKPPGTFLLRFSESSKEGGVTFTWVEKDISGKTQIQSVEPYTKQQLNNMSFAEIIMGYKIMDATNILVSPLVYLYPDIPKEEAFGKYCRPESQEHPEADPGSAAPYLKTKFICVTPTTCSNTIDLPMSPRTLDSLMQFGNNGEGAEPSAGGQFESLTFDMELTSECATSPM

“And” between values parts separate entries of the source, which are not always exact repeats. Equal values may be shown once.

Experimental for STAT3: NK-92 cells (DSMZ) were cultured in -MEM containing 12.5% fetal bovine serum (FBS), 12.5% horse serum, 2 mM L-glutamine, penicillin/streptomycin and 50 U/ml IL -2.
NK-92 cells were treated with test compound or DMSO in 1.5 ml medium in 12 -well plates (Corning) for 2 h (final DMSO concentration 0.2%), in the presence of 50 ng/ml IL -12 (PeproTech). […] Cells were harvested by washing twice with ice -cold TBS, followed by resuspension in TBS supplemented with protease/phosphatase inhibitors (100 ng/ml aprotinin, 1 mM Na3VO4, 10 mM NaF, 1 mM PMSF). […] Cells were lysed using three freeze -thaw cycles with liquid nitrogen and lysates cleared by centrif ugation.
NK-92 cell lysates were prepared for CETSA experiments by washing cultured cells once with TBS and resuspending in TBS supplemented with Halt Protease In hibitor Cocktail, EDTA-free (Fisher Scientific) at 3 x 10^6 cells per 100 µl. Cells were lysed using three freeze -thaw cycles with liquid nitrogen and lysates cleared by centrifugation.
CETSA experiments were performed essentially using the published protocol. […] Briefly, NK-92 cell lysates were incubated with test compound or DMSO for 15 min at room temperature (final DMSO concentration 2%). During this time, the treated lysate was divided into 10x 50 µl aliquots in 0.2 ml reaction tubes. Samples were then heated to the designated temperatures in a Veriti Pro Thermocycler (Thermo Fishe r Scientific) for 3 min, followed by 3 min incubation at room temperature, and then placed on ice. […] The soluble fractions were subsequently analyzed by Western blotting.
The components of cell lysates from treated cells, or heat-treated lysates from CETSA, were separated by SDS-PAGE (10%), transferred to nitrocellulose membrane (Bio-Rad) and detected using monoclonal rabbit primary antibodies (Cell Signaling), -rabbit-HRP secondary antibody (Dako) and Western Lightning Plus chemiluminescence reagent (Perkin Elmer).

On to `O=P(O)(O)Oc1ccc(-c2ccc3ccccc3c2)cc1F` [Compound 6m], for which, at wild‐type STAT4, the Kd turned out to be 1.3 ± 0.3 µM.
For `O=P(O)(O)C(F)(F)c1ccc(-c2ccc3ccccc3c2)cc1F` [Compound 8a], at STAT4, the “ΔT agg of STAT4” value is 1.1 °C; the “T agg of STAT4 (average)” value was 49.8 ± 0.1 °C and 49.8 °C; the “Tagg (STAT4) 3 independent experiments” value was 49.9 and 49.7 and 49.8.
`Cc1cc(-c2ccc(C(F)(F)P(=O)(O)O)c(F)c2)cs1` [Compound 8k]: on wild‐type STAT4, the Kd came out at 7.1 ± 1.1 µM. The “dissociation constant (ITC) relative to IC50 value in FP assays” value on wild‐type STAT4 (Kd (ITC) higher than IC50 (FP), STAT4) came out at 2 fold. Moreover, at STAT3 (CETSA, NK-92 cell lysates, versus DMSO control), the “ΔT agg of STAT3” value was −0.4 °C. Also, the “T agg of STAT3” value at STAT3 (CETSA, NK-92 cell lysates, DMSO control 51.0 ± 0.3 °C, n = 3) was 50.6 ± 0.2 °C. The “stabilization of STAT3 against thermal degradation” value at STAT3 (lysates from NK-92 cells, Ac-pYLPQTV-NH2 at 100 µM) is on record as “does not stabilize”. At STAT4, the “ΔT agg of STAT4” value was found to be 1.3 °C; the “T agg of STAT4 (average)” value was 50.0 ± 0.5 °C and 50.0 °C; the “Tagg (STAT4) 3 independent experiments” value was 50.5 and 49.6 and 49.8.
